Source: the RepoRT retention time repository (doi:10.1016/j.chroma.2015.11.014)

Test: RP, Agilent ZORBAX Eclipse Plus C18, 150 × 2.1 mm, 3.5 µm, 40 °C, 0.3 mL/min, estimated dead time 1.1 min; A: water + 0.1% formic acid; B: acetonitrile + 0.1% formic acid; gradient (min/%B) 0/2 1/2 2/20 16.5/98 22/98
Details: stereoisomer not certain

| LC retention time | Structure (SMILES) |
| --- | --- |
| 8.34 min | c1ccc([P+](Cc2ccccn2)(c2ccccc2)c2ccccc2)cc1 |
| 9.23 min | NC(=O)N1c2ccccc2CCc2ccccc21 |
| 9.53 min | O=C1OC2(c3ccc(O)cc3Oc3cc(O)ccc32)c2ccccc21 |
| 16 min | CCCCCCCCCCCCOC(=O)c1cc(O)c(O)c(O)c1 |
| 5.02 min | COc1cc(Cc2cnc(N)nc2N)cc(O)c1OC |
| 6.75 min | O=C([O-])CC[P+](c1ccccc1)(c1ccccc1)c1ccccc1 |
| 11.5 min | CC(C)(C)CC(C)(C)c1ccc(OCCOCC[N+](C)(C)Cc2ccccc2)cc1 |
| 2.61 min | NC(Cc1ccc(O)cc1)C(=O)O (stereo unspecified) |
| 9.54 min | CCOC(=O)NS(=O)(=O)c1ccc(C)cc1 |
| 4.97 min | COc1ccc(Cc2cnc(N)nc2N)cc1OC |
| 19.6 min | CC(C)(C)CC(C)(C)c1ccc(O)c(-n2nc3ccccc3n2)c1 |
| 8.63 min | c1ccc([P+](c2ccccc2)(c2ccccc2)c2ccccc2)cc1 |
| 12.9 min | CCC(CCC(C)O)COC(=O)c1ccccc1O (stereo unspecified) |
| 13.6 min | CCOC(=O)C(C#N)=C(c1ccccc1)c1ccccc1 |
| 9.12 min | S=c1[nH]c2ccccc2s1 |
| 9.53 min | CN1C(C(=O)Nc2ccccn2)=C(O)c2ccccc2S1(=O)=O |
| 7.08 min | CCN(Cc1cccc(S(=O)(=O)O)c1)c1ccc(C(=C2C=CC(=[N+](CC)Cc3cccc(S(=O)(=O)O)c3)C=C2)c2ccccc2S(=O)(=O)[O-])cc1 |
| 9.05 min | O=P(O)(OCc1ccccc1)OCc1ccccc1 |
| 2.16 min | CC1(C)CC(O)CC(C)(C)N1CCO |
| 2.18 min | Nc1ccc(O)c(C(=O)O)c1 |
| 7.7 min | CCNC(=O)NC1CCCCC1 |

| LC retention time | Structure (SMILES) |
| --- | --- |
| 18.4 min | CCCCCCCCCCCCCCCC[N+](C)(C)CCCCCCCCCCCCCCCC |
| 13.1 min | CCOC(=O)NCCOc1ccc(Oc2ccccc2)cc1 |
| 11.6 min | O=P(Cc1ccccc1)(Cc1ccccc1)Cc1ccccc1 |
| 5.7 min | COc1cc(C(=O)O)cc(OC)c1O |
| 10.1 min | CCOC(=O)Nc1ccc(C)c(NC(=O)OCC)c1 |
| 11.8 min | CC(=O)C1(O)CCC2C3CCC4=CC(=O)CCC4(C)C3CCC21C (stereo unspecified) |
| 5.02 min | CC(=O)Nc1ccc(O)cc1 |
| 5.51 min | Cn1c(=O)c2c(ncn2C)n(C)c1=O |
| 17.7 min | CCCCC(CC)COC(=O)C(C#N)=C(c1ccccc1)c1ccccc1 (stereo unspecified) |
| 11.9 min | Cc1ccc(C(C)NC(=O)C(NC(=O)OC(C)C)C(C)C)cc1 (stereo unspecified) |
| 10.7 min | CCOC(=O)c1ccc(O)c([N+](=O)[O-])c1 |
| 5.2 min | O=C1NS(=O)(=O)c2ccccc21 |
| 4.88 min | CCCC1CC(C(=O)NC(C(C)O)C2OC(SC)C(O)C(O)C2O)N(C)C1 (stereo unspecified) |
| 5.98 min | CCNc1nc(NC(C)(C)C)[nH]c(=O)n1 |
| 19 min | CCCCCCCCOc1ccc(C(=O)c2ccccc2)c(O)c1 |
| 11 min | O=C(c1ccccc1)c1ccc(O)cc1O |
| 5.84 min | CC(NC(CCc1ccccc1)C(=O)O)C(=O)C1CCCN1C(=O)O (stereo unspecified) |
| 8.86 min | CCCc1nc2c(C)cc(-c3nc4ccccc4n3C)cc2n1Cc1ccc(-c2ccccc2C(=O)O)cc1 |
| 7.02 min | Cc1ccc2n[nH]nc2c1 |
| 7.1 min | OCC[P+](c1ccccc1)(c1ccccc1)c1ccccc1 |
| 4.42 min | CN(C)Cc1ccccc1 |

| Structure (SMILES) | LC retention time |
| --- | --- |
| CCOP(=S)(OCC)Oc1ccc([N+](=O)[O-])cc1 | 14.1 min |
| CC(Cc1ccc(C(C)(C)C)cc1)CN1CC(C)OC(C)C1 (stereo unspecified) | 9.53 min |
| CCCCCCCCCCCCCN1CC(C)OC(C)C1 (stereo unspecified) | 10.4 min |
| CNC(=O)ON=CC(C)(C)SC | 8.4 min |
